# Test results from the supplement of paper PMC11061612.
# Columns and labels:
# Assay in all cases: combination Emax (second highest fraction inhibited in the dose matrix, 72 h); higher = more inhibition; extreme values may be limits of the assay
# [1] = test system: DMS-114 (Small Cell Lung Carcinoma)
# How it was run: (§1)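 Bliss excess equals the observed combination effect minus the expected value EA + EB − EA·EB, where EA and EB are the effects of each agent alone. Combination Emax is the second-highest inhibition within the matrix. Inhibition was scaled from CellTiter-Glo 2.0 luminescence, with 0 set by vehicle wells and 1 by blank wells, after 72 hours of two-drug dosing of cells plated in 1536-well plates.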
# [2] = test system: PC-3 (Prostate Carcinoma)
# How it was run: as §1
# [3] = test system: SK-GT-2 (Gastric Carcinoma)
# How it was run: as §1
# [4] = test system: MN-60 (B-Lymphoblastic Leukemia)
# How it was run: as §1
# SJSA-1 (Osteosarcoma) = test system: SJSA-1 (Osteosarcoma)
# How it was run: as §1
# G-361 (Melanoma) = test system: G-361 (Melanoma)
# How it was run: as §1
# [5] = test system: T-T (Esophageal Squamous Cell Carcinoma)
# How it was run: as §1
# [6] = test system: IM-95 (Gastric Carcinoma)
# How it was run: as §1
# [7] = test system: COR-L279 (Small Cell Lung Carcinoma)
# How it was run: as §1
# [8] = test system: NCI-H526 (Small Cell Lung Carcinoma)
# How it was run: as §1
# [9] = test system: 8505C (Thyroid Gland Carcinoma)
# How it was run: as §1
# [10] = test system: ST486 (Burkitt's Lymphoma)
# How it was run: as §1
# [11] = test system: MOLM-13 (Acute Myeloid Leukemia)
# How it was run: as §1
# [12] = test system: VMRC-RCZ (Kidney Carcinoma)
# How it was run: as §1
# M059J (Glioblastoma) = test system: M059J (Glioblastoma)
# How it was run: as §1
# [13] = test system: NCI-H929 (Plasma Cell Myeloma)
# How it was run: as §1
# [14] = test system: NCI-H520 (Squamous Cell Lung Carcinoma)
# How it was run: as §1
# [15] = test system: CHSA8926 (Chondrosarcoma)
# How it was run: as §1
# NCI-H2731 (Mesothelioma) = test system: NCI-H2731 (Mesothelioma)
# How it was run: as §1
# [16] = test system: HCC1187 (Breast Carcinoma)
# How it was run: as §1
SMILES,combination Emax [1],combination Emax [2],combination Emax [3],combination Emax [4],combination Emax (SJSA-1 (Osteosarcoma)),combination Emax (G-361 (Melanoma)),combination Emax [5],combination Emax [6],combination Emax [7],combination Emax [8],combination Emax [9],combination Emax [10],combination Emax [11],combination Emax [12],combination Emax (M059J (Glioblastoma)),combination Emax [13],combination Emax [14],combination Emax [15],combination Emax (NCI-H2731 (Mesothelioma)),combination Emax [16]
"COc1cc2c(cc1OCCCCCOc1cc3c(cc1OC)C(=O)N1C=C(C)C[C@H]1C=N3)N=C[C@@H]1CC(C)=CN1C2=O [SG3199] + O=C(c1cc(Cc2n[nH]c(=O)c3ccccc23)ccc1F)N1CCN(C(=O)C2CC2)CC1 [Olaparib] (first compound max 0.001 µM, 7x7, partner max 10 µM)",0.0991,0.159,0.12,0.079,0.159,0.0716,0.114,0.0954,0.878,0.503,0.202,0.103,0.554,0.0887,0.214,0.192,0.118,0.355,0.0512,0.204
"NC1(C(=O)N[C@@H](CCO)c2ccc(Cl)cc2)CCN(c2ncnc3[nH]ccc23)CC1 [Capivasertib] + COc1nnc2ccc(N3CCC(c4ccc(OCCN5CCN(C)C(=O)[C@H]5C)cc4)CC3)nn12 [AZD5153] (first compound max 10 µM, 7x7, partner max 1 µM)",0.529,0.45,0.362,0.848,0.727,0.891,0.527,0.562,1,0.983,0.405,0.91,1,0.487,0.682,1,0.806,0.48,0.588,0.309
"COc1cccc(OCCCN)c1-c1cc(Nc2cnc(C#N)cn2)n[nH]1 [Prexasertib] + CN(C)CCCOc1ccc(-c2ccc3ncc4c(c3c2)n(C2CCOCC2)c(=O)n4C)cn1 [AZD0156] (first compound max 1 µM, 7x7, partner max 1 µM)",0.408,0.272,0.823,0.546,0.711,0.702,0.597,0.458,0.809,0.895,0.541,0.991,1,0.342,0.658,0.825,0.775,0.288,0.406,0.645
"Cn1cnc2c(F)c(Nc3ccc(Br)cc3Cl)c(C(=O)NOCCO)cc21 [Selumetinib] + C=CCn1c(=O)c2cnc(Nc3ccc(N4CCN(C)CC4)cc3)nc2n1-c1cccc(C(C)(C)O)n1 [AZD1775] (first compound max 10 µM, partner max 1 µM)",0.192,0.165,0.652,0.282,0.449,0.826,0.301,0.453,0.432,0.69,0.425,0.978,1,0.258,0.262,0.684,0.295,0.556,0.194,0.682
"NC1(C(=O)N[C@@H](CCO)c2ccc(Cl)cc2)CCN(c2ncnc3[nH]ccc23)CC1 [Capivasertib] + Cn1cnc2c(F)c(Nc3ccc(Br)cc3Cl)c(C(=O)NOCCO)cc21 [Selumetinib] (first compound max 10 µM, 7x7, partner max 10 µM)",0.456,0.258,0.497,0.188,0.658,0.83,0.429,0.502,0.551,0.249,0.5,0.559,0.986,0.388,0.415,1,0.548,0.48,0.306,0.296
"C[C@@H](c1ccc2nccn2c1)n1nnc2ncc(-c3cnn(C)c3)nc21 [Savolitinib] + Cc1c2c(nn1C)CSCc1cc(n(C)n1)CSc1cc(c3ccccc3c1)OCCCc1c(C(=O)O)n(C)c3c-2c(Cl)ccc13 [AZD5991] (first compound max 1 µM, 7x7, partner max 1 µM)",0.551,0.121,0.163,0.114,0.265,0.358,0.836,0.732,0.244,0.43,0.173,0.483,1,0.134,0.204,1,0.208,0.318,0.119,1
"NC1(C(=O)N[C@@H](CCO)c2ccc(Cl)cc2)CCN(c2ncnc3[nH]ccc23)CC1 [Capivasertib] + CC(=O)c1c(C)c2cnc(Nc3ccc(N4CCNCC4)cn3)nc2n(C2CCCC2)c1=O [Palbociclib] (first compound max 10 µM, 7x7, partner max 10 µM)",0.284,0.376,0.248,0.583,0.51,0.443,0.344,0.423,0.688,0.15,0.187,0.549,0.98,0.401,0.338,1,0.717,0.48,0.361,0.257
